Source: article PMC8876231, “Analogues of Natural Chalcones as Efficient Inhibitors of AKR1C3” (Metabolites, 2022)
Values joined by “and” are separate entries in the source; they are usually repeats but may differ in a detail not shown here. Identical values can stand only once.

How the values were obtained:
Type in all cases: biochemical
Details in all cases: 10 µM compound; mean ± SD
AKR1C1 = target: T1, AKR1C1 (Homo sapiens, UniProt Q04828); experiment: AKR1C1 inhibition assay (progesterone to 20α-hydroxyprogesterone)
T1 construct: Myc (N); expressed in transfected cells; host or cells: HEK293
T1 sequence (Q04828 1-323): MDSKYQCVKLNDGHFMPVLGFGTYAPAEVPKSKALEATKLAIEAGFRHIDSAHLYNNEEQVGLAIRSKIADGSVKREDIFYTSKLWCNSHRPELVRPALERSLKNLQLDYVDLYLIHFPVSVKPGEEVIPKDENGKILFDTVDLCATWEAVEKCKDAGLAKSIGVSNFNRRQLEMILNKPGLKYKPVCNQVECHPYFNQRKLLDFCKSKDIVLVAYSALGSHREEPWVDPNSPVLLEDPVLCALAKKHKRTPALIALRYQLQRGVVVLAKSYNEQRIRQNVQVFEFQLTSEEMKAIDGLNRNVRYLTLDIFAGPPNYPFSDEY
Source text: (§1) For enzymatic assays and inhibitor testing, all enzymes were cloned into bacterial or mammalian expression vectors. AKR1C3 and the human hydroxysteroid dehydrogenases HSD17B1, HSD17B2, HSD17B4 (SDR domain), HSD17B7, and HSD17B10 were cloned into a pGEX vector as described in [71, 72]. The coding sequences for AKR1C1, AKR1C2, and AKR1C4 were cloned by Gateway technology into the pcDNA3-N-MycDest vector according to the manufacturer’s instructions (Life Technologies, Carlsbad, CA, USA). The p11 plasmid coding for HSD17B14 (S205 variant) was a gift from Udo Opperman SGC Oxford, UK. For assays with HSD17B3, HEK293 cells stably expressing HSD17B3 were used. Enzymes were expressed in E. coli BL21 DE3 or E. coli BL21 DE3 Codon Plus RP (Stratagene, San Diego, CA, USA) or in HEK293 cells as described in [71, 72, 73]. Bacterial and cell pellets were stored at −20 °C and −80 °C, respectively, until use.
(§2) Inhibition assays were carried out as described in [71, 74]. […] For a detailed assay setup, see Supplementary Table S6. The incubation at 37 °C was stopped with 0.21 M ascorbic acid in methanol:acetic acid 99:1 (v:v) after the time needed to convert approximately 30% of the substrate in a control assay with 1% DMSO, without inhibitor candidate. Substrates and products were extracted from the reaction mixture by solid-phase extraction using C18 cartridges (Phenomenex, Aschaffenburg, Germany) and separated by RP–HPLC in a Beckman–Coulter HPLC Gold system, using the Luna 5 µm C18(2), 125 × 4.0 mm column (Phenomenex). The mobile phases used were H2O:ACN (57:43 (v:v); for assays of estrone (E1) to oestradiol (E2), E2 to E1, and ∆4-androstene-3,17-dione to testosterone conversion), H2O:ACN (49:51 (v:v); for assays of progesterone to 20α-hydroxyprogesterone conversion), and H2O:MeOH (35:65 (v:v) for assays of dihydrotestosterone (DHT) to 3α-androstanediol conversion) at a flow rate of 1 mL/min. Radioactivity was detected by online scintillation counting by using a radioactivity monitor (LB506D, Berthold Technologies, Bad Wildbad, Germany). Conversion of substrates to products was determined by integration of the peak area of the substrate and product peaks in percent. For calculation of inhibition, the conversion of control assay (assay without inhibitor) was set to 0% inhibition. All assays were run in triplicates, and mean values ± SD are reported.
(§3) Table S6: Activity assay setup […]
(§4) E1: estrone; E2: 17β-estradiol, A: Δ4-androstene-3,17-dione; T: testosterone, P: progesterone, 20αOHP: 20α-hydroxyprogesterone, DHT: dihydrotestosterone, 3α-Adiol: 3α-androstanediol, NaPi: 100 mM Na-phosphate buffer; PI: C0mplete protease inhibitor (Roche);. E.coli - Expression in E.coli BL21 DE3 Codon Plus RP except E.coli BL21 DE3 […]
(§5) application to antiparasitic and natural product synthesis. Eur J Org Chem […]
(§6) Synthesis of Xanthohumol analogues and discovery of potent thioredoxin reductase inhibitor as potential anticancer agent. J Med Chem 2015, 58,

HSD17B10 = target: T2, HSD17B10 (Homo sapiens, UniProt Q99714); experiment: HSD17B10 inhibition assay (oestradiol to estrone)
T2 construct: GST (own knowledge: pGEX vectors encode N-terminal GST); made in house; host or cells: E. coli BL21 DE3 Codon Plus RP
T2 sequence (Q99714 1-261): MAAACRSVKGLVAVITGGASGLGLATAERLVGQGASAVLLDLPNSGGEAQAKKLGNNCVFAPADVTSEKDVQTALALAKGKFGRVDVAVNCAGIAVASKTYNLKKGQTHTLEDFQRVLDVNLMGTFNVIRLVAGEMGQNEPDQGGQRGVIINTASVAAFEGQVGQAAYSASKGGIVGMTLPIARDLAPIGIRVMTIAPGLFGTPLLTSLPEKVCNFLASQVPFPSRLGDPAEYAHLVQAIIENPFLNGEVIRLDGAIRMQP
Source text: as §1, §2, §3, §4, §5, §6

HSD17B4 = target: T3, HSD17B4 (Homo sapiens, UniProt P51659); experiment: HSD17B4 (SDR domain) inhibition assay (oestradiol to estrone)
T3 construct: pGEX-HSD17B4 (SDR domain) in; GST (own knowledge: pGEX vectors encode N-terminal GST); made in house; host or cells: E. coli BL21 DE3 Codon Plus RP
T3 sequence (P51659 1-305 limits assumed): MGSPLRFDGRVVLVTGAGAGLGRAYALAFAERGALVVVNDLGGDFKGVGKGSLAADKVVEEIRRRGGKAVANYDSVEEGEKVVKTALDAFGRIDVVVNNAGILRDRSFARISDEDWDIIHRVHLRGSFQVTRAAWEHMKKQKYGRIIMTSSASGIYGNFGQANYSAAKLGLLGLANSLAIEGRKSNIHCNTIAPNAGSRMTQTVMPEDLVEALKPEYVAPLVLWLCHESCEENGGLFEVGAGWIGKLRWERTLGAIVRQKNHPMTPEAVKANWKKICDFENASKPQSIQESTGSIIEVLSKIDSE
Source text: as §1, §2, §3
pGEX-HSD17B4 (SDR domain) in E2 à E1 estradiol-[6,7-3H], 40 NAD 750 µM NaPi pH7.7 […]
as §4, §5, §6

HSD17B2 = target: T4, HSD17B2 (Homo sapiens, UniProt P37059); experiment: HSD17B2 inhibition assay (oestradiol to estrone)
T4 construct: GST (own knowledge: pGEX vectors encode N-terminal GST); made in house; host or cells: E. coli BL21 DE3 Codon Plus RP
T4 sequence (P37059 1-387): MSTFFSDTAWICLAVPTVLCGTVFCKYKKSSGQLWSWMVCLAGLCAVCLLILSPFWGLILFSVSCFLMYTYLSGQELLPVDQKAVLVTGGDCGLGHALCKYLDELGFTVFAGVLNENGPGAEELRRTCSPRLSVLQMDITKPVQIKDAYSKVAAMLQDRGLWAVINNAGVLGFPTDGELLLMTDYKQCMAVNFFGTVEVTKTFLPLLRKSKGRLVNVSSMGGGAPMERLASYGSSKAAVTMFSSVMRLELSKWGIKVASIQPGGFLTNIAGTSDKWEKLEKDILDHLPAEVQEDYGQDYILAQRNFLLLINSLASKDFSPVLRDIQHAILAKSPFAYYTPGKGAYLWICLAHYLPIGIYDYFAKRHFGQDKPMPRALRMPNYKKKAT
Source text: as §1, §2, §3, §4, §5, §6

Structure (SMILES) | Inhibition of AKR1C1 at 10 µM in % (AKR1C1) | Inhibition of HSD17B10 at 10 µM in % (HSD17B10) [%] | Inhibition of HSD17B4 at 10 µM in % (HSD17B4) [%] | Inhibition of HSD17B2 at 10 µM in % (HSD17B2) [%] | inhibition at 10 µM (AKR1C1) [%] | inhibition at 10 µM (HSD17B10) [%] | inhibition at 10 µM (HSD17B4) [%] | inhibition at 10 µM (HSD17B2) [%]
COc1ccc(/C=C/C(=O)c2c(O)cc(O)cc2O)cc1 [Compound 19] | > 75% | 2.2 ± 2.6 | 2.0 ± 2.9 | 29.6 ± 3.7 | – | – | – | –
COc1ccc(/C=C/C(=O)c2c(O)cc(O)cc2OC)cc1 [Compound 18] | 96.5% | -0.5 ± 6.5 | 9.9 ± 6.1 | 10.4 ± 1.6 | – | – | – | –
Cc1ccc(/C=C/C(=O)c2c(O)cc(O)cc2O)cc1 [Compound 21] | 90.2 ± 0.8% and > 75% | 8.0 ± 6.5 | 3.0 ± 6.3 | 44.2 ± 4.7 | – | – | – | –
O=C(/C=C/c1ccc(Cl)cc1Cl)c1c(O)cc(O)cc1O [Compound 23, 2,4-dichloro-2′,4′,6′-trihydroxychalcone] | – | – | – | – | 97 ± 0.5 | 5.2 ± 3.8 | 19.6 ± 1 | 88.8
Cc1cccc(/C=C/C(=O)c2c(O)cc(O)cc2O)c1 [Compound 20] | 86.9 ± 1.1% and > 75% | -2.5 ± 0.7 | 8.6 ± 1.1 | 61.0 ± 0.9 | – | – | – | –
COc1cc(O)cc(O)c1C(=O)/C=C/c1ccc(Cl)cc1Cl [Compound 25] | 87.9% | -0.5 ± 7.3 | -6.0 ± 7.5 | 12.7 ± 2.3 | – | – | – | –
